Source: US8791102B2, “Acetanilide sphingosine-1-phosphate receptor antagonists” (Exelixis, Inc., priority 2008, dated 2014)

Biological target: T1, human S1P1 receptors (Homo sapiens, UniProt P21453)
T1 construct: host or cells: HEK293
Test: S1P1R antagonist assay (fluorescent membrane potential dye, cAMP readout)
Format: cell-based
Settings: HEK293 cells expressing human S1P1 receptors and CNG channel; 500 nM NECA; S1P1R agonist 10 nM; 90 minutes; read-out: EC50 or IC50 value

T1 sequence (P21453 whole entry): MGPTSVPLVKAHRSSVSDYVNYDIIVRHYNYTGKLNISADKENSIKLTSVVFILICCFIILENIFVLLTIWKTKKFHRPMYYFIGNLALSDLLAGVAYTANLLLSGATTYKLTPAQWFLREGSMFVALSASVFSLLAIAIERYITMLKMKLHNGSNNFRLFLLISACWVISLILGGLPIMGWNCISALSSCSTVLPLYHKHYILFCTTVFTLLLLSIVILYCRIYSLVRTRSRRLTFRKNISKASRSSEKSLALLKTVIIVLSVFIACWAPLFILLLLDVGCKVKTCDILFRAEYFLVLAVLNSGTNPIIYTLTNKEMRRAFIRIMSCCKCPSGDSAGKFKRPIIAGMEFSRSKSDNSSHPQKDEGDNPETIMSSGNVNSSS

Q: Which IC50 does the source give for `Cc1n[nH]c(C)c1CC(=O)N[C@@H](COCc1ccccc1)C(=O)Nc1ccc(Oc2ccc(F)cc2)cc1` [Compound 152, (S)-3-(benzyloxy)-2-(2-(3,5-dimethyl-1H-pyrazol-4-yl)acetamido)-N-(4-(4-fluorophenoxy)phenyl)propanamide] here?
A: ≤ 300 nM

Q: How did the IC50 turn out when `O=C(Nc1ccc(Oc2ccc(F)cc2)cc1)[C@@H]1C[C@@H](Cc2ccc(Cl)cc2Cl)CN1C(=O)Cn1cncn1` [Compound 180, (2S,4R)-1-(2-(1H-1,2,4-triazol-1-yl)acetyl)-4-(2,4-dichlorobenzyl)-N-(4-(4-fluorophenoxy)phenyl)pyrrolidine-2-carboxamide] was run?
A: ≤ 300 nM

Q: Which IC50 does the source give for `O=C(Cn1cncn1)N[C@@H](COCc1ccccc1)C(=O)Nc1ccc(Oc2ccccc2)cc1` [Compound 146, (S)-2-(2-(1H-1,2,4-triazol-1-yl)acetamido)-3-(benzyloxy)-N-(4-phenoxyphenyl)propanamide] here?
A: ≤ 300 nM

Q: With `COc1ccc(CCC(=O)NC(COCc2ccccc2)C(=O)Nc2ccc(Oc3ccccc3)cc2)cc1OC` (stereo not drawn) [Compound 348, N-(2-oxo-1-{[(phenylmethyl)oxy]methyl}-2-{[4-(phenyloxy)phenyl]amino}ethyl)-3-(3,4-dimethoxyphenyl)propanamide] as the compound, how does the IC50 read?
A: 300 to 1000 nM

Q: With `O=C(Nc1ccc(Oc2ccc(F)cc2)cc1)[C@@H]1C[C@@H](Cc2ccc(F)cc2Cl)CN1C(=O)Cn1cncn1` [Compound 9, (2S,4R)-1-(2-(1H-1,2,4-triazol-1-yl)acetyl)-4-(2-chloro-4-fluorobenzyl)-N-(4-(4-fluorophenoxy)phenyl)pyrrolidine-2-carboxamide] as the compound, how does the IC50 read?
A: ≤ 300 nM

Q: With `O=C(Nc1ccc(Oc2ccc(F)cc2)cc1)[C@@H]1CN(Cc2ccccc2)CCN1C(=O)Cn1cncn1` [Compound 261, (S)-1-(2-(1H-1,2,4-triazol-1-yl)acetyl)-4-benzyl-N-(4-(4-fluorophenoxy)phenyl)piperazine-2-carboxamide] as the compound, how does the IC50 read?
A: 300 to 1000 nM

Q: For `O=C(Cn1cncn1)N[C@@H](COCc1ccccc1)C(=O)Nc1ccc(Oc2ccc(F)cc2)cc1` [Compound 149, (S)-2-(2-(1H-1,2,4-triazol-1-yl)acetamido)-3-benzyloxy-N-(4-(4-fluorophenoxy)phenyl)propanamide], which IC50 is on record?
A: ≤ 300 nM

Q: For `O=C(Cc1ccccc1Cl)NC(COCc1ccccc1)C(=O)Nc1ccc(Oc2ccccc2)cc1` (stereo not drawn) [Compound 391, N-(2-oxo-1-{[(phenylmethyl)oxy]methyl}-2-{[4-(phenyloxy)phenyl]amino}ethyl)-2-(2-chlorophenyl)acetamide], which IC50 is on record?
A: > 1000 nM

Q: For `COc1cccc(C[C@@H]2C[C@@H](C(=O)Nc3ccc(Oc4ccc(F)cc4)cc3)N(C(=O)Cn3nccn3)C2)c1` [Compound 69, (2S,4R)-1-(2-(2H-1,2,3-triazol-2-yl)acetyl)-N-(4-(4-fluorophenoxy)phenyl)-4-(3-methoxybenzyl)pyrrolidine-2-carboxamide], which IC50 is on record?
A: ≤ 300 nM

Q: How did the IC50 turn out when `O=C(Nc1ccc(Oc2ccc(F)cc2)cc1)[C@@H]1C[C@@H](Cc2ccc(Cl)cc2)CN1C(=O)Cn1nccn1` [Compound 227, (2S,4R)-1-(2-(2H-1,2,3-triazol-2-yl)acetyl)-4-(4-chlorobenzyl)-N-(4-(4-fluorophenoxy)phenyl)pyrrolidine-2-carboxamide] was run?
A: ≤ 300 nM

Q: Which IC50 does the source give for `CC(=O)NC(COCc1ccccc1)C(=O)Nc1ccc(Oc2ccccc2)cc1` (stereo not drawn) [Compound 269, N-(2-oxo-1-{[(phenylmethyl)oxy]methyl}-2-{[4-(phenyloxy)phenyl]amino}ethyl)acetamide] here?
A: 300 to 1000 nM

Q: For `CN(CC(=O)N[C@@H](COCc1ccccc1)C(=O)Nc1ccc(Oc2ccccc2)cc1)C(=O)c1ccccc1` [Compound 194, (S)-2-{2-((benzoyl)(methyl)amino)acetamido}-3-benzyloxy-N-(4-phenoxyphenyl)propanamide], which IC50 is on record?
A: 300 to 1000 nM

Q: For `O=C(Cc1cnc[nH]1)N[C@@H](CCCc1ccccc1)C(=O)Nc1ccc(Oc2ccc(F)cc2)cc1` [Compound 137, (S)-2-(2-(1H-imidazol-5-yl)acetamido)-5-phenyl-N-(4-(4-fluorophenoxy)phenyl)pentanamide], which IC50 is on record?
A: ≤ 300 nM

Q: For `CC(C)N1CCN(CC(=O)N[C@@H](COCc2ccccc2)C(=O)Nc2ccc(Oc3ccc(F)cc3)cc2)CC1` [Compound 111, (S)-3-(benzyloxy)-N-(4-(4-fluorophenoxy)phenyl)-2-(2-(4-isopropylpiperazin-1-yl)acetamido)propanamide], which IC50 is on record?
A: > 1000 nM

Q: For `O=C(Nc1ccc(Oc2ccc(F)cc2)cc1)[C@@H]1C[C@@H](Cc2ccc(Cl)s2)CN1C(=O)Cn1nccn1` [Compound 66, (2S,4S)-1-(2-(2H-1,2,3-triazol-2-yl)acetyl)-4-((5-chlorothien-2-yl)methyl)-N-(4-(4-fluorophenoxy)phenyl)pyrrolidine-2-carboxamide], which IC50 is on record?
A: ≤ 300 nM

Q: For `O=C(Cc1c[nH]cn1)N[C@@H](COCc1ccc(F)cc1)C(=O)Nc1ccc(Oc2ccc(Br)cc2)cc1` [Compound 168, (S)-2-(2-(1H-imidazol-5-yl)acetamido)-N-(4-(4-bromophenoxy)phenyl)-3-(4-fluorobenzyloxy)propanamide], which IC50 is on record?
A: ≤ 300 nM

Q: For `COCCOCC(=O)NC(COCc1ccccc1)C(=O)Nc1ccc(Oc2ccccc2)cc1` (stereo not drawn) [Compound 303, N-(2-oxo-1-{[(phenylmethyl)oxy]methyl}-2-{[4-(phenyloxy)phenyl]amino}ethyl)-2-methoxyethoxyacetamide], which IC50 is on record?
A: 300 to 1000 nM

Q: Which IC50 does the source give for `O=C(NC(COCc1ccccc1)C(=O)Nc1ccc(Oc2ccccc2)cc1)C(=O)c1ccccc1` (stereo not drawn) [Compound 324, N-(2-oxo-1-{[(phenylmethyl)oxy]methyl}-2-{[4-(phenyloxy)phenyl]amino}ethyl)-2-oxo-2-phenylacetamide] here?
A: > 1000 nM

Q: `O=C(Nc1ccc(Oc2ccc(F)cc2)cc1)[C@@H]1C[C@@H](c2ccccc2)CN1C(=O)Cc1cnc[nH]1` [Compound 251, (2S,4S)-1-(2-(1H-imidazol-5-yl)acetyl)-N-(4-(4-fluorophenoxy)phenyl)-4-phenylpyrrolidine-2-carboxamide] was tested. Which IC50 did it give?
A: ≤ 300 nM

Q: Which IC50 does the source give for `CC(=O)CCCC(=O)NC(COCc1ccccc1)C(=O)Nc1ccc(Oc2ccccc2)cc1` (stereo not drawn) [Compound 310, 5-oxo-N-(2-oxo-1-{[(phenylmethyl)oxy]methyl}-2-{[4-(phenyloxy)phenyl]amino}ethyl)hexanamide] here?
A: > 1000 nM

Q: For `Cc1nc(CC(=O)N[C@@H](COCc2ccccc2)C(=O)Nc2ccc(Oc3ccc(F)cc3)cc2)c[nH]1` [Compound 162, (S)-3-(benzyloxy)-N-(4-(4-fluorophenoxy)phenyl)-2-(2-(2-methyl-1H-imidazol-4-yl)acetamido)propanamide], which IC50 is on record?
A: ≤ 300 nM

Q: Which IC50 does the source give for `Cc1cccc(C(=O)NC(COCc2ccccc2)C(=O)Nc2ccc(Oc3ccccc3)cc2)c1[N+](=O)[O-]` (stereo not drawn) [Compound 189, N-(3-(benzyloxy)-1-oxo-1-(4-phenoxyphenylamino)propan-2-yl)-3-methyl-2-nitrobenzamide] here?
A: 300 to 1000 nM

Q: With `O=C(CN1CCCCCC1)N[C@@H](COCc1ccccc1)C(=O)Nc1ccc(Oc2ccc(F)cc2)cc1` [Compound 128, (S)-2-(2-(azepan-1-yl)acetamido)-3-(benzyloxy)-N-(4-(4-fluorophenoxy)phenyl)propanamide] as the compound, how does the IC50 read?
A: > 1000 nM

Q: How did the IC50 turn out when `O=C(Cc1cccc2ccccc12)NC(COCc1ccccc1)C(=O)Nc1ccc(Oc2ccccc2)cc1` (stereo not drawn) [Compound 375, N-(2-oxo-1-{[(phenylmethyl)oxy]methyl}-2-{[4-(phenyloxy)phenyl]amino}ethyl)-2-(naphthalen-1-yl)acetamide] was run?
A: > 1000 nM
